Molecules are shown by their SMILES.

For data set [1], the target named is T1, α-Glucosidase from Saccharomyces cerevisiae (EC 3.2.1.20) (Saccharomyces cerevisiae, UniProt P53341).
T1 construct: purchased Sigma-Aldrich
Briefly: biochemical.

Data set [2] addresses T1, α-Glucosidase from Saccharomyces cerevisiae (EC 3.2.1.20). Briefly: Enzyme inhibitory mechanism and kinetic type assay (Lineweaver-Burk plots). Type of data set: biochemical. Particulars: compound 0–25 μM. The text has this:
To study the inhibitory mechanisms of all derivatives on α-glucosidase, enzyme inhibitory mechnism was detected using compound 4 with the strongest inhibitory. Figure 3A illustrated the plots of enzyme activity vs. enzyme concentration.
The kinetic type was also studied using Lineweaver-Burk plots.
α-Glucosidase from Saccharomyces cerevisiae (EC 3.2.1.20) and p-Nitrophenyl-α-D-[…] (p-NPG) were purchased from Sigma-Aldrich. All additional reagents and solvents were readily obtained from a commercial source. NMR spectra were obtained on 500 MHz equipment in CDCl3. High-resolution mass spectral (HRMS) data was recorded on Apex II using the ESI technique.
The α-glucosidase inhibitory activity of compounds (1 ∼ 6) was detected as described in previous reports ([Adisakwattana et al., 2009]; [Adisakwattana et al., 2013]; [Zhang et al., 2022]). 10 μl α-glucosidase solution, 10 μl compound were added into 80 μl phosphate buffer, and the mixture was incubated for 10 min. Then, 100 μl p-NPG solution was added into the mixture, followed by the absorbance change detection at 405 nm. The inhibition rate (%) = […] × 100%, where OD1 and OD0 were the absorbance of tested compound and blank, respectively. The IC50 value was calculated from the plot of inhibition rate vs. compound concentration. Acarbose was used as a positive sample. All samples were repeated four times. The enzyme inhibitory mechnism and kinetic type were also determined according to previous reported reports ([Adisakwattana et al., 2004]; [Song et al., 2016]).

T1 sequence (P53341 whole entry): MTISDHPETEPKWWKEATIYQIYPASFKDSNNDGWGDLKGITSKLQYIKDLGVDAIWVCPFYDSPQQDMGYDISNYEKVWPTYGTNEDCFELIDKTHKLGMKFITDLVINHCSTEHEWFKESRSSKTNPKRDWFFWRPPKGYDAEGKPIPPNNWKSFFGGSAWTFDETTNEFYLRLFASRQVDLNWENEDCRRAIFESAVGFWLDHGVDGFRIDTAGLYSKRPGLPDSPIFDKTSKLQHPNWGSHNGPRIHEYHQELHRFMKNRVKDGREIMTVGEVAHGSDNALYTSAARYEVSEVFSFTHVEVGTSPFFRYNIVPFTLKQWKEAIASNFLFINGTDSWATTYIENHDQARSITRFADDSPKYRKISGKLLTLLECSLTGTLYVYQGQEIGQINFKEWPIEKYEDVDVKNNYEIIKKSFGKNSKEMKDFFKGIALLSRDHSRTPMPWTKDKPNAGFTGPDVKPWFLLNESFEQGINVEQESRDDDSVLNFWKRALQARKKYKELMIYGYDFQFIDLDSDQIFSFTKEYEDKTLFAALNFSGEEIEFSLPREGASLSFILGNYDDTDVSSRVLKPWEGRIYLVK

The IC50 is the concentration that gives 50% inhibition. In general, melting point refers to the temperature, or range, at which the solid turns liquid. `O=C(CCc1ccc(F)cc1)Oc1ccc(-c2cc(=O)c3ccccc3o2)cc1` [Compound 5]: the melting point lay in the range of 103 to 104 °C. For the same compound, 19.66 ± 0.04 µM corresponded to half-maximal inhibition in data set [1] (IC50).
Compound `Cc1ccc(CCC(=O)Oc2ccc(-c3cc(=O)c4ccccc4o3)cc2)cc1` [Compound 2] registered a melting point of 135 to 136 °C. This compound had a half-inhibitory concentration (IC50) in data set [1] of 21.55 ± 0.13 µM.
`O=C(CCc1ccc(Cl)cc1)Oc1ccc(-c2cc(=O)c3ccccc3o2)cc1` [Compound 3] showed a melting point of 112 to 114 °C. In data set [1], the half-inhibitory concentration (IC50) came to 31.09 ± 0.1 µM.
In turn, `O=C(CCc1ccccc1)Oc1ccc(-c2cc(=O)c3ccccc3o2)cc1` [Compound 1] gave a melting point of 133 to 134 °C. Further, in data set [1], half-maximal inhibition (IC50) required 42.06 ± 0.08 µM.
`O=C(CCc1ccc(Br)cc1)Oc1ccc(-c2cc(=O)c3ccccc3o2)cc1` [Compound 4]: the melting point was in the range of 127 to 129 °C. This compound also registered a 50% inhibitory concentration (IC50) in data set [1] of 15.7 ± 0.21 µM. Also, in data set [2], the “Inhibition type (Lineweaver-Burk plots of enzyme activity vs. substrate concentration)” value is “mix-type inhibition” and the “Inhibitory mechanism (plots of enzyme activity vs. enzyme concentration)” value is “reversible inhibitor”. Moreover, in data set [2] (listed as derivative four), the “Inhibition type (Lineweaver-Burk plots of enzyme activity vs. substrate concentration)” value was “mixed-type inhibitor” and the “Inhibitory mechanism (plots of enzyme activity vs. enzyme concentration)” value is “reversible”.
In turn, `O=C(CCc1ccc(C(F)(F)F)cc1)Oc1ccc(-c2cc(=O)c3ccccc3o2)cc1` [Compound 6] registered a melting point of 250 to 251 °C. In data set [1], this compound came in with a half-inhibitory concentration (IC50) of 27.54 ± 0.02 µM.
